Molecules are shown by their SMILES.

This test addresses T1, amyloid-β (Aβ1-40) fibrils (Homo sapiens, UniProt P05067).
T1 construct: gene APP; Aβ1-40, aggregated (fibrils)
The test is described as follows: fluorescence saturation binding (ΔF at […] nm, fibrils vs soluble Aβ).

T1 sequence (P05067 672-711): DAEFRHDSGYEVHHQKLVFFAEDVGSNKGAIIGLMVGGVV

Turning to `Cc1ccc2c(c1)C(C)(C)C1(/C=C/C=C/c3ccc(N(C)C)cc3)NC(=O)CCN21` (stereo not shown) [THK-565, 10a-[(1E,3E)-4-(4-dimethylamino-phenyl)-buta-1,3-dienyl]-8,10,10-trimethyl-3,4,10,10a-tetrahydro-1H-pyrimido[1,2-a]indol-2-one], the Kd worked out at 156 nM.

Broadly, the Kd is the free concentration of one partner at which half of the binding sites on the other are occupied at equilibrium, for simple one-to-one binding.

The values are drawn from PMC10728248, “A Novel Near-Infrared Fluorescence Probe THK-565 Enables In Vivo Detection of Amyloid Deposits in Alzheimer’s Disease Mouse Model” (Molecular Imaging and Biology, 2023).
